{
  "source": "patent US11865176B2",
  "about": "“Compositions and methods of modulating anti-tumor immunity” (Dana-Farber Cancer Institute, Inc., priority 2016, dated 2024)",
  "key": {"[1]": {"tested_on": "MC38", "test": "MC38 syngeneic colon adenocarcinoma model", "format": "in vivo, mouse", "description": "For syngeneic models, MC38 and CT26 cells were injected into 6-8 week C57BL/6 or Balb/c female mice subcutaneously, respectively. Vehicle control, CDK4/6 inhibitors (trilaciclib or palbociclib) were treated alone or together with PD-1 antibody starting at the indicated time point, using an intermittent dosing schedule of 3 days on, 4 days off until experimental endpoint. PD-1 antibody was administered 3 times a week (Monday, Wednesday and Friday) at 200 μg/mouse through I.P. injection."}, "[2]": {"tested_on": "tumor infiltrating immune cells", "test": "FACS analysis of lung tumor immune infiltrates, KP GEMM", "format": "in vivo, mouse", "description": "All animal studies were reviewed and approved by the Institutional Animal Care and Use Committee (IACUC) at the Dana-Farber Cancer Institute. The genetically engineered mouse model (GEMM) harboring a conditional activating mutation of endogenous Kras (Kras^LSL-G12D/+) crossed with p53 conditional knockout Trp53^fl/fl has been previously described (36). CRE recombinase was induced through intranasal inhalation of […] adeno-Cre (University of Iowa adenoviral core).\nFor drug treatment studies in GEMM models, mice were evaluated by MRI imaging to quantify lung tumor burden before and after drug treatment. Mice were treated with either vehicle, or 100 mg/kg trilaciclib or 100 mg/kg palbociclib daily by oral gavage.\nMice were sacrificed, and lungs were perfused using sterile PBS through heart perfusion from the left ventricle after BAL fluid collection. The whole lung was minced into small pieces and digested in collagenase D (Sigma) and Dnase I (Sigma) in Hank's Balanced Salt Solution (HBSS) at 37° C. for 30 min. […] Live cells were determined by LIVE/DEAD® fixable aqua dead cell stain kit (Molecular Probes). The cell pellets were re-suspended in PBS with 2% FBS for Fluorescence-activated cell sorting (FACS) analysis. […] Cells were imaged on BD LSRFortessa (BD Biosciences) and analyzed using FlowJo software (Tree Star)."}, "[3]": {"tested_on": "patient-derived organotypic tumor spheroids (PDOTS)", "test": "Cytokine profiling of patient-derived organotypic tumor spheroids (PDOTS) in 3D microfluidic culture", "format": "cell-based, human", "conditions": "100 nM; day 1 and day 3", "description": "Experiments were performed as described (28). Briefly, fresh tumor specimens from human patients were received in media (DMEM) on ice and minced in 10 cm dishes (on ice) in a sterile field. S2 fractions (40-100 μm) were used for ex vivo culture as previously described (28). An aliquot of the S2 fraction was pelleted and re-suspended in type I rat-tail collagen (Corning, Corning, NY) and the spheroid-collagen mixture was then injected into the center gel region of the 3D microfluidic culture device. After 30 minutes at 37° C., collagen hydrogels containing PDOTS/MDOTS were hydrated with media with indicated treatments. MDOTS were treated with IgG isotype control (10 μg/mL, clone 2A3) or rat-α-mouse anti-PD-1 (10 μg/ml, clone RMP1-14, BioXCell). […]\nMouse lung broncho alveolar lavage (BAL) was performed by intracheal injection of 2 ml of sterile PBS followed by collection by aspiration. Cytokines were measured using 19-plex mouse magnetic Luminex kit (R&D systems), Mouse Cytokine 23-plex Assay (Bio-Rad) or Human Cytokine 40-plex Assay (Bio-Rad) and measured on Bio-Plex 200 system (Bio-Rad). […] Fold changes relative to the control were calculated and plotted as log 2FC. Lower and upper limits of quantitation (LLOQ/ULOQ) were derived from standard curves for cytokines above or below detection. […]"}, "[4]": {"tested_on": "primary human CD4+ T cells", "test": "IL2 ELISA, primary human CD4+ T cells", "format": "cell-based", "conditions": "α-CD3/CD28 and recombinant PD-L1 or control IgG; 100 nM (FIG. 1C)", "description": "PD-1-overexpressing Jurkat cells as previously published (23) were stimulated with Dynabeads conjugated to α-CD3 (UCHT1), α-CD28 (28.2), and α-PD-1 (clone EH12 from Gordon Freeman) or control IgG at a 4:1 bead:cell ratio in the presence of 1 μM CDK4/6 inhibitor for 18 h. For primary human T cells, normal donor human blood was obtained through DFCI IRB Protocol 04-430. PBMC were isolated using a Ficoll-Paque density gradient, and purified populations of CD4+ T lymphocytes were obtained through a negative magnetic selection kit according to manufacturer's instructions (Miltenyi). […] IL-2 levels in the supernatant were analyzed by AlphaLISA (Perkin Elmers) according to the manufacturer's protocol."}},
  "data": [
    {"smiles": "CN1CCN(c2ccc(Nc3ncc4cc5n(c4n3)C3(CCCCC3)CNC5=O)nc2)CC1", "note": "[trilaciclib]", "values": [
      {"measurement": "increase in CD4+ IL-2 production", "setting": "[1]; TILs, trilaciclib added to PD-1 blockade, day 17", "value": "~2", "unit": "fold"},
      {"measurement": "tumor growth", "setting": "[1]; intermittent trilaciclib (100 mg/kg, 3 days on, 4 days off) added to PD-1 blockade", "value": "nearly eliminated tumor growth"},
      {"measurement": "increase in levels of IFNγ in CD8+ TILs", "setting": "[1]; trilaciclib added to PD-1 blockade, day 17", "value": "~10", "unit": "fold"},
      {"measurement": "infiltration of CD4+ T cells and, to a lesser degree, CD8+ cells into lung tumors", "setting": "[2]; KP mice, 100 mg/kg daily for 7 days", "value": "increased infiltration"},
      {"measurement": "levels of PD-1 and CTLA-4 in CD4+ and CD8+ T cells", "setting": "[2]; after treatment, to different extents", "value": "reduced"},
      {"measurement": "levels of Th1 cytokines (CXCL9, CXCL10, IFNγ, IL-16, CXCL16)", "setting": "[3]", "value": "increased levels of Th1 cytokines"},
      {"measurement": "IL-2 secretion", "setting": "[4]", "value": "enhanced IL-2 secretion"}
    ]}
  ]
}
